Assay results reported in patent US6204293A, “Inhibitors of protein isoprenyl transferases” (University of Pittsburgh, priority 1998, dated 2001).

What follows are compounds tested against T1, Rat brain protein farnesyltransferase (Rattus norvegicus, UniProt Q02293+Q04631) (assay: % inhibition of farnesylation, scintillation proximity assay with biotin-K Ras B fragment). Settings: Table 1; 1 × 10^-5 M.
T1 construct: Rat brain protein farnesyltransferase activity is measured; from tissue; host or cells: rat brain
Type: biochemical
In short: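 Rat brain enzyme, purified through three steps, in a scintillation proximity assay kit with biotin-K Ras B fragment substrate at 0.1 mM final. Value is % inhibition of farnesylation.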

T1 sequence (Q02293 whole entry, the tested form may be a part, one chain of several): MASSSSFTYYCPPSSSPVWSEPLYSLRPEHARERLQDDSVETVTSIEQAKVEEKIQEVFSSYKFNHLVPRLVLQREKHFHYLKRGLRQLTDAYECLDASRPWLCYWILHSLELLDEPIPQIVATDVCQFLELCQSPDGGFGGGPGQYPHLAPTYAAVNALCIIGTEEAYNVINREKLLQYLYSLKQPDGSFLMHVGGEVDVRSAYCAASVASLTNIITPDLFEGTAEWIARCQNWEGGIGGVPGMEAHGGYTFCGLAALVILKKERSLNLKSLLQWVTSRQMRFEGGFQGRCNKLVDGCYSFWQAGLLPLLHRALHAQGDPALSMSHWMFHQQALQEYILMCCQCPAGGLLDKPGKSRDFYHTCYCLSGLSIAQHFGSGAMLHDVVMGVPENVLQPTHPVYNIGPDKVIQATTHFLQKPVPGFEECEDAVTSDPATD

| % inhibition at 1 × 10^-5 M | Structure (SMILES) |
| --- | --- |
| 55% | COc1cc2c(cc1OC)C(CNCc1ccc(C(=O)N[C@@H](CCSC)C(=O)O)c(-c3ccccc3)c1)=CC(C1CCCCC1)C2 (stereo partly drawn) [Example 659] |
| 43% | CSCC[C@H](NC(=O)c1ccc(CNCCC2CCCCC2)cc1-c1ccccc1)C(=O)O [Example 663] |
| 75% | C=C[C@@H](CC1CCCCC1)NCc1ccc(C(=O)N[C@@H](CCSC)C(=O)O)c(-c2ccccc2)c1 [Example 664] |
| 48% | CSCC[C@H](NC(=O)c1ccc(CNc2ccccc2N(C)C)cc1-c1ccccc1)C(=O)O [Example 672] |
| 40% | CSCC[C@H](NC(=O)c1ccc(CNc2cccc(C)c2)cc1-c1ccccc1)C(=O)O [Example 674] |
| 76% | CSCC[C@H](NC(=O)c1ccc(CNc2cccc(O)c2)cc1-c1ccccc1)C(=O)O [Example 676] |
| 73% | CSCC[C@H](NC(=O)c1ccc(CNc2cccc(OC(F)(F)F)c2)cc1-c1ccccc1)C(=O)O [Example 678] |
| 58% | CSCC[C@H](NC(=O)c1ccc(CNc2cccc(CO)c2)cc1-c1ccccc1)C(=O)O [Example 680] |
| 57% | CSCC[C@H](NC(=O)c1ccc(CNc2cccc(N(C)C)c2)cc1-c1ccccc1)C(=O)O [Example 683] |
| 48% | CSCC[C@H](NC(=O)c1ccc(CNc2cccc(CC(=O)O)c2)cc1-c1ccccc1)C(=O)O [Example 684] |
| 55% | CSCC[C@H](NC(=O)c1ccc(CNc2cccc(CCC(=O)O)c2)cc1-c1ccccc1)C(=O)O [Example 685] |
| 48% | CSCC[C@H](NC(=O)c1ccc(CNc2cccc(Oc3ccccc3)c2)cc1-c1ccccc1)C(=O)O [Example 686] |
| 78% | CSCC[C@H](NC(=O)c1ccc(CNc2ccc(F)cc2)cc1-c1ccccc1)C(=O)O [Example 687] |
| 71% | CSCC[C@H](NC(=O)c1ccc(CNc2ccc(I)cc2)cc1-c1ccccc1)C(=O)O [Example 688] |
| 73% | CSCC[C@H](NC(=O)c1ccc(CNc2ccc(O)cc2)cc1-c1ccccc1)C(=O)O [Example 689] |
| 61% | COc1ccc(NCc2ccc(C(=O)N[C@@H](CCSC)C(=O)O)c(-c3ccccc3)c2)cc1 [Example 690] |
| 74% | CSCC[C@H](NC(=O)c1ccc(CNc2ccc(C(C)C)cc2)cc1-c1ccccc1)C(=O)O [Example 692] |

| % inhibition at 1 × 10^-5 M | Structure (SMILES) |
| --- | --- |
| 74% | CSCC[C@H](NC(=O)c1ccc(CNc2ccc(C3CCCCC3)cc2)cc1-c1ccccc1)C(=O)O [Example 699] |
| 68% | CSCC[C@H](NC(=O)c1ccc(CNc2ccc(-c3ccccc3)cc2)cc1-c1ccccc1)C(=O)O [Example 700] |
| 64% | CSCC[C@H](NC(=O)c1ccc(CNc2ccc(Oc3ccccc3)cc2)cc1-c1ccccc1)C(=O)O [Example 701] |
| 79% | CSCC[C@H](NC(=O)c1ccc(CNc2ccc(C(=O)c3ccccc3)cc2)cc1-c1ccccc1)C(=O)O [Example 702] |
| 67% | CSCC[C@H](NC(=O)c1ccc(CNc2ccc(C)c(C)c2)cc1-c1ccccc1)C(=O)O [Example 704] |
| 72% | CSCC[C@H](NC(=O)c1ccc(CNc2ccc3c(c2)CCC3)cc1-c1ccccc1)C(=O)O [Example 705] |
| 53% | CSCC[C@H](NC(=O)c1ccc(CNc2ccc3c(c2)Cc2ccccc2-3)cc1-c1ccccc1)C(=O)O [Example 706] |
| 76% | CSCC[C@H](NC(=O)c1ccc(CNc2ccc3ncccc3c2)cc1-c1ccccc1)C(=O)O [Example 708] |
| 55% | CSCC[C@H](NC(=O)c1ccc(CNc2cc(C)cc(C)c2)cc1-c1ccccc1)C(=O)O [Example 709] |
| 45% | CSCC[C@H](NC(=O)c1ccc(CNc2cc(C(=O)O)cc(C(=O)O)c2)cc1-c1ccccc1)C(=O)O [Example 710] |
| 46% | CCN(Cc1ccc(C(=O)N[C@@H](CCSC)C(=O)O)c(-c2ccccc2)c1)Cc1cc([N+](=O)[O-])ccc1O [Example 711] |
| 69% | CSCC[C@H](NC(=O)c1ccc(CNCc2cc(Cl)cc(Cl)c2)cc1-c1ccccc1)C(=O)O [Example 712] |
| 40% | CSCC[C@H](NC(=O)c1ccc(CNC(CO)C(O)c2ccccc2)cc1-c1ccccc1)C(=O)O (stereo partly drawn) [Example 713] |
| 56% | CSCC[C@H](NC(=O)c1ccc(CNC(CO)Cc2ccccc2)cc1-c1ccccc1)C(=O)O (stereo partly drawn) [Example 714] |
| 67% | CSCC[C@H](NC(=O)c1ccc(CN[C@H](CC2CCCCC2)[C@H](O)[C@H](O)CC(C)C)cc1-c1ccccc1)C(=O)O [Example 715] |
| 40% | CSCC[C@H](NC(=O)c1ccc(CNCCCCc2ccccc2)cc1-c1ccccc1)C(=O)O [Example 718] |

Same assay, conditions: Table 2; 1 × 10^-6 M

| % inhibition at 1 × 10^-6 M | Structure (SMILES) |
| --- | --- |
| 54% | CSCC[C@H](NC(=O)c1ccc(CNc2ccccc2C(N)=O)cc1-c1ccccc1)C(=O)O [Example 644] |
| 37% | CSCC[C@H](NC(=O)c1ccc(CNc2ccccc2Oc2ccccc2)cc1-c1ccccc1)C(=O)O [Example 645] |
| 58% | CCOC(=O)c1ccc(NCc2ccc(C(=O)N[C@@H](CCSC)C(=O)O)c(-c3ccccc3)c2)cc1 [Example 646] |
| 86% | CSCC[C@H](NC(=O)c1ccc(CN(CCC#N)Cc2ccccc2)cc1-c1ccccc1)C(=O)O [Example 649] |
| 68% | COc1ccccc1CNCc1ccc(C(=O)N[C@@H](CCSC)C(=O)O)c(-c2ccccc2)c1 [Example 650] |
| 41% | COc1cccc(CNCc2ccc(C(=O)N[C@@H](CCSC)C(=O)O)c(-c3ccccc3)c2)c1 [Example 652] |
| 62% | CSCC[C@H](NC(=O)c1ccc(CNCc2ccc(N)cc2)cc1-c1ccccc1)C(=O)O [Example 653] |
| 35% | COc1ccc(CNCc2ccc(C(=O)N[C@@H](CCSC)C(=O)O)c(-c3ccccc3)c2)c(OC)c1 [Example 655] |
| 32% | CSCCC(NC(=O)c1ccc(CNC(CO)c2ccccc2)cc1-c1ccccc1)C(=O)O (stereo not drawn) [Example 657] |
| 73% | CSCCC(NC(=O)c1ccc(CNC(CO)c2ccccc2)cc1-c1ccccc1)C(=O)O (stereo not drawn) [Example 658] |
| 45% | CSCC[C@H](NC(=O)c1ccc(CNCC(O)c2cccc(O)c2)cc1-c1ccccc1)C(=O)O (stereo partly drawn) [Example 661] |
| 68% | CSCC[C@H](NC(=O)c1ccc(CNC(CO)Cc2ccc(Cl)cc2)cc1-c1ccccc1)C(=O)O (stereo partly drawn) [Example 662] |
| 55% | CSCC[C@H](NC(=O)c1ccc(CN[C@@H](/C=C\CC(C)C)CC2CCCCC2)cc1-c1ccccc1)C(=O)O [Example 665] |
| 82% | CSCC[C@H](NC(=O)c1ccc(CN[C@H](/C=C\CC(C)C)CC2CCCCC2)cc1-c1ccccc1)C(=O)O [Example 666] |
| 83% | CSCC[C@H](NC(=O)c1ccc(CNCCSc2ccccc2)cc1-c1ccccc1)C(=O)O [Example 667] |
| 36% | CSCC[C@H](NC(=O)c1ccc(CNc2ccccc2CCO)cc1-c1ccccc1)C(=O)O [Example 671] |
| 59% | CSCC[C@H](NC(=O)c1ccc(CNc2ccccc2N2CCCCC2)cc1-c1ccccc1)C(=O)O [Example 673] |
| 37% | CSCC[C@H](NC(=O)c1ccc(CNc2cccc(I)c2)cc1-c1ccccc1)C(=O)O [Example 677] |
| 31% | CSCC[C@H](NC(=O)c1ccc(CNc2cccc(C(N)=O)c2)cc1-c1ccccc1)C(=O)O [Example 682] |
| 34% | CSCC[C@H](NC(=O)c1ccc(CNc2ccc(OC(F)(F)F)cc2)cc1-c1ccccc1)C(=O)O [Example 691] |
| 53% | CSCC[C@H](NC(=O)c1ccc(CNc2ccc(C(O)(C(F)(F)F)C(F)(F)F)cc2)cc1-c1ccccc1)C(=O)O [Example 693] |
| 45% | CSCC[C@H](NC(=O)c1ccc(CNc2ccc(CCO)cc2)cc1-c1ccccc1)C(=O)O [Example 694] |
| 39% | CSCC[C@H](NC(=O)c1ccc(CNc2ccc(N3CCCCC3)cc2)cc1-c1ccccc1)C(=O)O [Example 697] |
| 40% | CSCC[C@H](NC(=O)c1ccc(CNc2ccc(-c3nc4ccccc4s3)cc2)cc1-c1ccccc1)C(=O)O [Example 703] |
| 69% | CSCC[C@H](NC(=O)c1ccc(CN[C@@H](CC2CCCCC2)[C@@H](O)[C@@H](O)CC(C)C)cc1-c1ccccc1)C(=O)O [Example 716] |
| 90% | CSCC[C@H](NC(=O)c1ccc(CN(C)CC(O)CO)cc1-c1ccccc1C)C(=O)O (stereo partly drawn) [Example 719] |
| 87% | CCc1nnc(NCc2ccc(C(=O)N[C@@H](CCSC)C(=O)O)c(-c3ccccc3C)c2)s1 [Example 723] |
| 87% | COC(=O)c1cscc1NCc1ccc(C(=O)N[C@@H](CCSC)C(=O)O)c(-c2ccccc2C)c1 [Example 724] |
| 81% | CSCC[C@H](NC(=O)c1ccc(CNc2ccc(S(=O)(=O)Nc3onc(C)c3C)cc2)cc1-c1ccccc1C)C(=O)O [Example 726] |
| 95% | CSCC[C@H](NC(=O)c1ccc(CN[C@H](CO)Cc2ccccc2)cc1-c1ccccc1C)C(=O)O [Example 727] |

Same assay, conditions: read-out: % inhibition at 1 × 10^-7 M; Table 3; 1 × 10^-7 M

| inhibition at 0.1 µM | Structure (SMILES) |
| --- | --- |
| 96% | CSCC[C@H](NC(=O)c1ccc(CSC2=NCCS2)cc1-c1ccccc1C)C(=O)O [Example 730] |
| 84% | CSCC[C@H](NC(=O)c1ccc(CSc2nc3ccccc3[nH]2)cc1-c1ccccc1C)C(=O)O [Example 732] |
| 60% | CSCC[C@H](NC(=O)c1ccc(CSc2nc3cc(C)ccc3[nH]2)cc1-c1ccccc1C)C(=O)O [Example 733] |
